Results published in patent publication US11667643B2, “RIP1K inhibitors” (priority 2020, dated 2023).

How the values were obtained:
[1] = tested on: U937 cells; test: U937 cell necroptosis assay (TNFa + zVAD, CellTiter-Glo recovery), functional human RIP1 assay; format: cell-based; conditions: Homo sapiens, U-937, 18 h, read-out: U937 Zvad TNF CTG Recovery, U937, TNFa + zVAD (IC50), U937 cells, zVAD-fmk, TNFa 2 ng/mL, 18 hours, CellTiter-Glo
Method in brief: (§1)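 Human U937 cells (50K/well, 60 uM zVAD-fmk in plating medium) and murine L929 cells (10K/well, medium replaced with 40 uM zVAD-fmk) were pre-incubated with compound 1 h at 37 °C. TNFa was then added at a final 2 ng/mL. Viability by CellTiter-Glo luminescence after 18 h.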

[2] = target: RIPK1 (Homo sapiens (Human), UniProt Q13546); test: biochemical; format: biochemical; conditions: RIPK1 enzyme 31 ng/well, 30° C. for 30 minutes, luminescence; read-out: RIPK1 ADP-Glo Kinase (IC50)
Chain of RIPK1 (Q13546 whole entry, species assumed): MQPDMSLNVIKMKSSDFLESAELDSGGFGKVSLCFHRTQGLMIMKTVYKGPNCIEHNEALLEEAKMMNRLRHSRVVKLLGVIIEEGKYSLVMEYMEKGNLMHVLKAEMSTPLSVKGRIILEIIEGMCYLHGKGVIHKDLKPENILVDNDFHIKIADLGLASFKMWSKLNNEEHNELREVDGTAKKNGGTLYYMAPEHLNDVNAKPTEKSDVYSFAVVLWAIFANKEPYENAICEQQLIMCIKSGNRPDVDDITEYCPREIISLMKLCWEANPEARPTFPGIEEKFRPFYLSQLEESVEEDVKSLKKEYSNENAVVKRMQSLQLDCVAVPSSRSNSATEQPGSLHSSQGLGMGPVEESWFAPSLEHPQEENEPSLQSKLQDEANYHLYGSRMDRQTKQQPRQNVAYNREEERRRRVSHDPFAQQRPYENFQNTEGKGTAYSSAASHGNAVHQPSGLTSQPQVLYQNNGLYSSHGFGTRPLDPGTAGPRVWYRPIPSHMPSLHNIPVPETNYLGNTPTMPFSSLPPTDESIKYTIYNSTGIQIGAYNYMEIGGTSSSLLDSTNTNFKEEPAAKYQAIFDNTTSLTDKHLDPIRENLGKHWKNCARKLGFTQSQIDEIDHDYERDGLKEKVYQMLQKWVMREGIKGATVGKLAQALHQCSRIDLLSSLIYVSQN
Method in brief: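 ADP-Glo luminescent assay of RIPK1 at 31 ng/well in Tris-HCl pH 7.4 buffer with MgCl2, BSA, 100 μM DTT and 4 mM MnCl2; compounds run in duplicate. Kinase reaction 30 min at 30 °C, then ADP-Glo 40 min and detection reagent 30 min at room temperature; ADP formation read as luminescence.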

[3] = tested on: L929 cells; test: L929 cell necroptosis assay (TNFa + zVAD, CellTiter-Glo recovery), functional murine RIP1 assay; format: cell-based; conditions: Mus musculus, L929, 18 h, read-out: L929-CTG-recovery, L929, TNFa + zVAD (IC50), L929 cells, zVAD-fmk, TNFa 2 ng/mL, 18 hours, CellTiter-Glo
Method in brief: as §1

## O=C(N[C@H]1COc2ccccc2-n2c1noc2=O)c1n[nH]c(Cc2ccc(F)cc2F)n1 [Compound I-49, 5-(2,4-Difluorobenzyl)-N-((4R)-1-oxo-4,5-dihydro-1H-benzo[b][1,2,4]oxadiazolo[4,3-d][1,4]oxazepin-4-yl)-1H-1,2,4-triazole-3-carboxamide]
[1]
  IC50: 0.717 µM
[2]
  IC50: 0.347 µM
[3]
  IC50: 10000 µM

## O=C(NC1CCc2ccccc2-n2c(Cl)cnc21)c1ncn(Cc2c(Cl)cccc2Cl)n1 (racemic) [Compound I-74, (±)-N-(1-Chloro-5,6-dihydro-4H-benzo[f]imidazo[1,2-a]azepin-4-yl)-1-(2,6-dichlorobenzyl)-1H-1,2,4-triazole-3-carboxamide]
[1]
  IC50: 0.0898 µM
[2]
  IC50: 0.054 µM
[3]
  IC50: 8.62 µM

## O=C(NC1COc2ccccc2-n2cccc21)c1ncn(Cc2ccccc2F)n1 (racemic) [Compound I-38, (±)-N-(6,7-Dihydrobenzo[b]pyrrolo[1,2-d][1,4]oxazepin-7-yl)-1-(2-fluorobenzyl)-1H-1,2,4-triazole-3-carboxamide]
[1]
  IC50: 0.0439 µM
[2]
  IC50: 0.0223 µM
[3]
  IC50: 9.79 µM

## O=C(N[C@H]1COc2ccccc2-n2nnnc21)c1ncn(Cc2c(Cl)cccc2Cl)n1 [Compound I-11, (R)-1-(2,6-Dichlorobenzyl)-N-(4,5-dihydrobenzo[6]tetrazolo[1,5-d][1,4]oxazepin-4-yl)-1H-1,2,4-triazole-3-carboxamide]
[1]
  IC50: 0.0343 µM
[2]
  IC50: 0.0178 µM
[3]
  IC50: 10000 µM

## O=C(NC1CCc2ccc(N3CCC4(CCOCC4)CC3)cc2-n2c1noc2=O)c1n[nH]c(Cc2ccccc2)n1 (racemic) [Compound I-65, (±)-5-Benzyl-N-(1-oxo-9-(3-oxa-9-azaspiro[5.5]undecan-9-yl)-5,6-dihydro-1H,4H-benzo[f][1,2,4]oxadiazolo[4,3-a]azepin-4-yl)-1H-1,2,4-triazole-3-carboxamide]
[1]
  IC50: 0.0211 µM
[2]
  IC50: 0.0678 µM
[3]
  IC50: 3.26 µM

## O=C(N[C@H]1COc2ccccc2-n2c1noc2=O)c1cc(Oc2ccccc2)ccn1 [Compound I-53, N-((4R)-1-Oxo-4,5-dihydro-1H-benzo[6][1,2,4]oxadiazolo[4,3-d][1,4]oxazepin-4-yl)-4-phenoxypicolinamide]
[1]
  IC50: 0.0462 µM
[2]
  IC50: 0.0204 µM
[3]
  IC50: 30.7 µM

## O=C(NC1CSc2cccn2-n2ccnc21)c1n[nH]c(Cc2ccccc2)n1 (racemic) [Compound I-45, (±)-5-Benzyl-N-(4,5-dihydroimidazo[1,2-d]pyrrolo[2,1-b][1,3,4]thiadiazepin-4-yl)-1H-1,2,4-triazole-3-carboxamide]
[1]
  IC50: 0.0364 µM
[2]
  IC50: 0.0312 µM
[3]
  IC50: 10.5 µM

## O=C(N[C@H]1COc2ncccc2-n2c1noc2=O)c1cc(Cc2ccccc2)on1 [Compound I-46, 5-Benzyl-N-((4R)-1-oxo-4,5-dihydro-1H-[1,2,4]oxadiazolo[4,3-d]pyrido[2,3-b][1,4]oxazepin-4-yl)isoxazole-3-carboxamide]
[1]
  IC50: 39.4 µM
[2]
  IC50: 4.41 µM
[3]
  IC50: 10000 µM

## O=C(N[C@H]1COc2ccc(N3CC4(CCOCC4)C3)cc2-n2ccnc21)c1cc(Oc2ccccc2)ccn1 [Compound I-88, (R)—N-(9-(7-Oxa-2-azaspiro[3.5]nonan-2-yl)-4,5-dihydrobenzo[b]imidazo[1,2-d][1,4]oxazepin-4-yl)-4-phenoxypicolinamide]
[1]
  IC50: 0.163 µM
[2]
  IC50: 0.112 µM
[3]
  IC50: 10000 µM

## O=C(NC1CCc2ccccc2-n2c1n[nH]c2=O)c1ncn(Cc2c(Cl)cccc2Cl)n1 (racemic) [Compound I-36, (±)-1-(2,6-Dichlorobenzyl)-N-(1-oxo-2,4,5,6-tetrahydro-1H-benzo[f][1,2,4]triazolo[4,3-a]azepin-4-yl)-1H-1,2,4-triazole-3-carboxamide]
[1]
  IC50: 0.714 µM
[2]
  IC50: 2.8 µM
[3]
  IC50: 16.1 µM

## O=C(NC1CCc2ccc(N3CCC4(CCOCC4)CC3)cc2-n2ccnc21)c1ccn(Cc2ccccc2)n1 (racemic) [Compound I-77, (±)-N-(9-(3-Oxa-9-azaspiro[5.5]undecan-9-yl)-5,6-dihydro-4H-benzo[f]imidazo[1,2-a]azepin-4-yl)-1-benzyl-1H-pyrazole-3-carboxamide]
[1]
  IC50: 0.0096 µM
[2]
  IC50: 0.111 µM
[3]
  IC50: 4.08 µM

## Cn1nc2n(c1=O)-c1ccccc1CCC2NC(=O)c1ncn(Cc2c(Cl)cccc2Cl)n1 (racemic) [Compound I-60, (±)-1-(2,6-Dichlorobenzyl)-N-(2-methyl-1-oxo-2,4,5,6-tetrahydro-1H-benzo[f][1,2,4]triazolo[4,3-a]azepin-4-yl)-1H-1,2,4-triazole-3-carboxamide]
[1]
  IC50: 35.8 µM
[2]
  IC50: 1.29 µM
[3]
  IC50: 10000 µM
